Converted amounts (≈) assume the structure as drawn. Read-outs that look alike come from different tables or passages of the source. Peptide text beside a SMILES is read from it.
What was measured:
Experiment in all cases: microbe, parasite or virus in culture
Type in all cases: cell-based
[1] = tested on: inherently resistant microorganisms
S. aureus = tested on: S. aureus
[2] = tested on: vancomycin / teicoplanin resistant enterococci
bacterial isolates = settings: for Peptide MIC Alone: Tobramycin section
[3] = tested on: microorganisms with acquired resistance; settings: for Peptide MIC: in µg/mL
[4] = S. aureus SA014 (also SA014 MRSA)
[5] = S. aureus SA025 (also SA025 MRSA)

## CC[C@H](C)[C@H](NC(=O)[C@H](C)NC(=O)[C@@H]1CCCN1C(=O)CNC(=O)[C@H](C)NC(=O)[C@@H](NC(=O)[C@H](CCCCN)NC(=O)[C@H](CC(C)C)NC(=O)CNC(=O)[C@H](CO)NC(=O)[C@H](CC(C)C)NC(=O)[C@@H](NC(=O)[C@H](CCCNC(=N)N)NC(=O)[C@H](CCCNC(=N)N)NC(=O)[C@H](Cc1c[nH]c2ccccc12)NC(=O)[C@H](Cc1c[nH]c2ccccc12)NC(=O)[C@H](CCCCN)NC(=O)[C@@H](N)CCCCN)C(C)C)[C@@H](C)O)C(=O)N[C@@H](CCC(N)=O)C(=O)N[C@@H](CO)C(=O)N[C@H](C(=O)N[C@@H](CC(C)C)C(=O)N[C@@H](CC(N)=O)C(=O)N[C@@H](CCCCN)C(=O)O)C(C)C [MBI 21A1] (H-KKWWRRVLSGLKTAGPAIQSVLNK-OH; N-terminus and C-terminus assumed)
[1]; E. coli, Mupirocin section
  Peptide MIC Alone: 2 µg/mL
[1]; peptide + Tobramycin, S. aureus
  FIC: 0.50
S. aureus; S. aureus SA25
  Ciprofloxacin MIC + Peptide: 0.125 µg/mL
  Peptide MIC + Ciprofloxacin: 4 µg/mL
[2]; E. faecalis EFS012
  Peptide MIC + Vancomycin: 2 µg/mL
  Vancomycin MIC + Peptide: 4 µg/mL
[2]; E. faecalis EFS013
  Peptide MIC + Vancomycin: 2 µg/mL
  Vancomycin MIC + Peptide: 4 µg/mL
[2]; in combination with the labelled peptide, E. faecium EFM010
  Vancomycin MIC + Peptide: 4 µg/mL
[2]; in combination with vancomycin, E. faecium EFM010
  Peptide MIC + Vancomycin: 16 µg/mL
Bacterial isolates; B. cepacia BC001
  Peptide MIC + Tobramycin: 0.25 µg/mL
  Tobramycin MIC + Peptide: 32 µg/mL
  Peptide MIC Alone: >128 µg/mL
Bacterial isolates; E. coli ECO3
  Mupirocin MIC + Peptide: 3 µg/mL
  Peptide MIC + Mupirocin: 2 µg/mL
Bacterial isolates; E. coli SBECO2
  Mupirocin MIC + Peptide: 30 µg/mL
  Peptide MIC + Mupirocin: 2 µg/mL
Bacterial isolates; E. faecalis EFS007
  Peptide MIC + Vancomycin: 1 µg/mL
  Vancomycin MIC + Peptide: 1 µg/mL
Bacterial isolates; E. faecalis EFS012
  Peptide MIC + Vancomycin: 1 µg/mL
  Vancomycin MIC + Peptide: 16 µg/mL
Bacterial isolates; E. faecalis EFS013
  Peptide MIC + Vancomycin: 1 µg/mL
  Vancomycin MIC + Peptide: 32 µg/mL
Bacterial isolates; E. faecium EFM010
  Peptide MIC + Vancomycin: 2 µg/mL
  Vancomycin MIC + Peptide: 32 µg/mL
Bacterial isolates; P. aeruginosa PA4
  Ciprofloxacin MIC + Peptide: 0.125 µg/mL
  Peptide MIC + Ciprofloxacin: 32 µg/mL
Bacterial isolates; P. aeruginosa PA022
  Peptide MIC + Tobramycin: 0.125 µg/mL
  Tobramycin MIC + Peptide: 4 µg/mL
  Peptide MIC Alone: 4 µg/mL
Bacterial isolates; P. aeruginosa PA026
  Peptide MIC + Tobramycin: 0.125 µg/mL
  Tobramycin MIC + Peptide: 4 µg/mL
  Peptide MIC Alone: 16 µg/mL
Bacterial isolates; P. aeruginosa PA41
  Ciprofloxacin MIC + Peptide: 1 µg/mL
  Peptide MIC + Ciprofloxacin: 4 µg/mL
Bacterial isolates; P. aeruginosa SBPA1
  Mupirocin MIC + Peptide: 30 µg/mL
  Peptide MIC + Mupirocin: 32 µg/mL
Bacterial isolates; [4]
  Peptide MIC + Tobramycin: 16 µg/mL
  Tobramycin MIC + Peptide: 0.125 µg/mL
  Peptide MIC Alone: 32 µg/mL
Bacterial isolates; S. aureus SA25
  Ciprofloxacin MIC + Peptide: 0.125 µg/mL
  Peptide MIC + Ciprofloxacin: 4 µg/mL
Bacterial isolates; [5]
  Peptide MIC + Tobramycin: 1 µg/mL
  Tobramycin MIC + Peptide: 0.125 µg/mL
  Peptide MIC Alone: 2 µg/mL
Bacterial isolates; S. aureus SA93
  Ciprofloxacin MIC + Peptide: 8 µg/mL
  Peptide MIC + Ciprofloxacin: 1 µg/mL
Bacterial isolates; S. haemolyticus SHA001
  Peptide MIC + Tobramycin: 4 µg/mL
  Tobramycin MIC + Peptide: 0.5 µg/mL
  Peptide MIC Alone: 16 µg/mL
Bacterial isolates; S. haemolyticus SHA005
  Peptide MIC + Tobramycin: 4 µg/mL
  Tobramycin MIC + Peptide: 1 µg/mL
  Peptide MIC Alone: 32 µg/mL
Bacterial isolates; S. maltophilia SMA029
  Peptide MIC + Tobramycin: 32 µg/mL
  Tobramycin MIC + Peptide: 4 µg/mL
  Peptide MIC Alone: 128 µg/mL
Bacterial isolates; S. maltophilia SMA030
  Peptide MIC + Tobramycin: 32 µg/mL
  Tobramycin MIC + Peptide: 4 µg/mL
  Peptide MIC Alone: >128 µg/mL
Bacterial isolates; peptide + Ciprofloxacin, P. aeruginosa PA4
  FIC: 0.50
Bacterial isolates; peptide + Ciprofloxacin, P. aeruginosa PA41
  FIC: 0.50
Bacterial isolates; peptide + Ciprofloxacin, S. aureus SA25
  FIC: 0.16
Bacterial isolates; peptide + Ciprofloxacin, S. aureus SA93
  FIC: 0.50
Bacterial isolates; peptide + Mupirocin, E. coli ECO3
  FIC: 0.28
Bacterial isolates; peptide + Mupirocin, E. coli SBECO2
  FIC: 0.28
Bacterial isolates; peptide + Mupirocin, P. aeruginosa SBPA1
  FIC: 0.53
Bacterial isolates; peptide + Tobramycin, B. cepacia BC001
  FIC: 0.25
Bacterial isolates; peptide + Tobramycin, P. aeruginosa PA022
  FIC: 0.53
Bacterial isolates; peptide + Tobramycin, P. aeruginosa PA026
  FIC: 0.51
Bacterial isolates; peptide + Tobramycin, S. aureus SA014 (also SA014 MRSA)
  FIC: 0.50
Bacterial isolates; peptide + Tobramycin, S. aureus SA025 (also SA025 MRSA)
  FIC: 0.50
Bacterial isolates; peptide + Tobramycin, S. haemolyticus SHA001
  FIC: 0.50
Bacterial isolates; peptide + Tobramycin, S. haemolyticus SHA005
  FIC: 0.38
Bacterial isolates; peptide + Tobramycin, S. maltophilia SMA029
  FIC: 0.28
Bacterial isolates; peptide + Tobramycin, S. maltophilia SMA030
  FIC: 0.16
Bacterial isolates; peptide + Vancomycin, E. faecalis EFS007
  FIC: 0.56
Bacterial isolates; peptide + Vancomycin, E. faecalis EFS012
  FIC: 0.16
Bacterial isolates; peptide + Vancomycin, E. faecalis EFS013
  FIC: 0.28
Bacterial isolates; peptide + Vancomycin, E. faecium EFM010
  FIC: 0.56
[3]; P. aeruginosa PA022
  Peptide MIC + Tobramycin: 0.125 µg/mL
  Tobramycin MIC + Peptide: 4 µg/mL
[3]; P. aeruginosa PA022, Tobramycin section
  Peptide MIC Alone: 4 µg/mL
[3]; P. aeruginosa PA026
  Peptide MIC + Tobramycin: 0.125 µg/mL
  Tobramycin MIC + Peptide: 4 µg/mL
[3]; P. aeruginosa PA026, Tobramycin section
  Peptide MIC Alone: 16 µg/mL
[3]; P. aeruginosa PA030
  Peptide MIC + Tobramycin: 8 µg/mL
  Tobramycin MIC + Peptide: 0.25 µg/mL
[3]; P. aeruginosa PA030, Tobramycin section
  Peptide MIC Alone: 16 µg/mL
[3]; P. aeruginosa PA032
  Peptide MIC + Tobramycin: 32 µg/mL
  Tobramycin MIC + Peptide: 1 µg/mL
[3]; P. aeruginosa PA032, Tobramycin section
  Peptide MIC Alone: 64 µg/mL
[3]; P. aeruginosa PA41
  Ciprofloxacin MIC + Peptide: 1 µg/mL
  Peptide MIC + Ciprofloxacin: 4 µg/mL
[3]; P. aeruginosa PA41, Ciprofloxacin section
  Peptide MIC Alone: 16 µg/mL
[3]; P. aeruginosa PA77
  Ciprofloxacin MIC + Peptide: 1 µg/mL
  Peptide MIC + Ciprofloxacin: 16 µg/mL
[3]; P. aeruginosa PA77, Ciprofloxacin section
  Peptide MIC Alone: 32 µg/mL
[3]; P. aeruginosa, combination with Ciprofloxacin
  Peptide MIC: 16
[3]; S. aureus, combination with Ciprofloxacin
  Peptide MIC: 2
[3]; S. aureus, combination with Mupirocin
  Peptide MIC: 16
[3]; S. maltophilia SMA029
  Peptide MIC + Tobramycin: 32 µg/mL
  Tobramycin MIC + Peptide: 4 µg/mL
[3]; S. maltophilia SMA029, Tobramycin section
  Peptide MIC Alone: 128 µg/mL
[3]; S. maltophilia SMA030
  Peptide MIC + Tobramycin: 32 µg/mL
  Tobramycin MIC + Peptide: 4 µg/mL
[3]; S. maltophilia SMA030, Tobramycin section
  Peptide MIC Alone: >128 µg/mL

## C/C(=C\C(=O)OCCCCCCCCC(=O)O)C[C@@H]1OC[C@H](C[C@@H]2O[C@H]2[C@@H](C)[C@H](C)O)[C@@H](O)[C@H]1O [Mupirocin]
[1]; Escherichia coli, read-out: Mupirocin MIC Alone, E. coli
  MIC: 100 µg/mL (≈ 200 µM)
[1]; Pseudomonas aeruginosa, read-out: Mupirocin MIC + Peptide, P. aeruginosa, peptide MBI 28
  MIC: 3 µg/mL
[1]; Pseudomonas aeruginosa, read-out: Mupirocin MIC + Peptide, P. aeruginosa, peptide MBI 29A3
  MIC: 0.1 µg/mL
[1]; Pseudomonas aeruginosa, read-out: Mupirocin MIC Alone, P. aeruginosa
  MIC: > 100 µg/mL
[1]; read-out: Mupirocin MIC + Peptide, E. coli, peptide MBI 11B4CN
  MIC: 3 µg/mL
[1]; read-out: Mupirocin MIC + Peptide, E. coli, peptide MBI 11D18CN
  MIC: 1 µg/mL
[1]; read-out: Mupirocin MIC + Peptide, E. coli, peptide MBI 21A1
  MIC: 3 µg/mL
[1]; read-out: Mupirocin MIC + Peptide, E. coli, peptide MBI 26
  MIC: 3 µg/mL
[1]; read-out: Mupirocin MIC + Peptide, E. coli, peptide MBI 28
  MIC: 0.1 µg/mL
S. aureus; Staphylococcus aureus, S. aureus SBSA4, read-out: Mupirocin MIC Alone
  MIC: > 100 µg/mL
Bacterial isolates; Escherichia coli, read-out: Mupirocin MIC Alone, E. coli ECO1
  MIC: > 100 µg/mL
Bacterial isolates; Escherichia coli, read-out: Mupirocin MIC Alone, E. coli ECO2
  MIC: 100 µg/mL (≈ 200 µM)
Bacterial isolates; Escherichia coli, read-out: Mupirocin MIC Alone, E. coli ECO3
  MIC: 100 µg/mL (≈ 200 µM)
Bacterial isolates; Escherichia coli, read-out: Mupirocin MIC Alone, E. coli ECO5
  MIC: 100 µg/mL (≈ 200 µM)
Bacterial isolates; Escherichia coli, read-out: Mupirocin MIC Alone, E. coli SBECO1
  MIC: 100 µg/mL (≈ 200 µM)
Bacterial isolates; Escherichia coli, read-out: Mupirocin MIC Alone, E. coli SBECO2
  MIC: > 100 µg/mL
Bacterial isolates; Pseudomonas aeruginosa, read-out: Mupirocin MIC Alone, P. aeruginosa PA2
  MIC: > 100 µg/mL
Bacterial isolates; Pseudomonas aeruginosa, read-out: Mupirocin MIC Alone, P. aeruginosa PA3
  MIC: > 100 µg/mL
Bacterial isolates; Pseudomonas aeruginosa, read-out: Mupirocin MIC Alone, P. aeruginosa PA4
  MIC: > 100 µg/mL
Bacterial isolates; Pseudomonas aeruginosa, read-out: Mupirocin MIC Alone, P. aeruginosa SBPA1
  MIC: > 100 µg/mL
Bacterial isolates; Serratia marcescens, read-out: Mupirocin MIC Alone, S. marcescens SBSM1
  MIC: > 100 µg/mL
Bacterial isolates; Serratia marcescens, read-out: Mupirocin MIC Alone, S. marcescens SBSM2
  MIC: > 100 µg/mL
Bacterial isolates; Staphylococcus aureus, read-out: Mupirocin MIC Alone, S. aureus SBSA3
  MIC: 100 µg/mL (≈ 200 µM)
Bacterial isolates; Staphylococcus aureus, read-out: Mupirocin MIC Alone, S. aureus SBSA4
  MIC: > 100 µg/mL
[3]; E. faecium, with MBI 11CN
  MIC comb. (antibiotic agent): 0.1 µg/mL (≈ 0.2 µM)
[3]; E. faecium, with MBI 11G13CN
  MIC comb. (antibiotic agent): 0.1 µg/mL (≈ 0.2 µM)
[3]; Enterococcus faecium, read-out: MIC alone (antibiotic agent), E. faecium
  MIC: 100 µg/mL (≈ 200 µM)
[3]; S. aureus, with MBI 11A1CN
  MIC comb. (antibiotic agent): 1 µg/mL (≈ 2 µM)
[3]; S. aureus, with MBI 11CN
  MIC comb. (antibiotic agent): 0.1 µg/mL (≈ 0.2 µM)
[3]; S. aureus, with MBI 11D18CN
  MIC comb. (antibiotic agent): 0.1 µg/mL (≈ 0.2 µM)
[3]; S. aureus, with MBI 11F1CN
  MIC comb. (antibiotic agent): 3 µg/mL (≈ 5.99 µM)
[3]; S. aureus, with MBI 21A1
  MIC comb. (antibiotic agent): 0.1 µg/mL (≈ 0.2 µM)
[3]; S. aureus, with MBI 21A2
  MIC comb. (antibiotic agent): 0.1 µg/mL (≈ 0.2 µM)
[3]; S. aureus, with MBI 21A10
  MIC comb. (antibiotic agent): 0.3 µg/mL (≈ 0.599 µM)
[3]; S. aureus, with MBI 26
  MIC comb. (antibiotic agent): 0.1 µg/mL (≈ 0.2 µM)
[3]; S. aureus, with MBI 29A3
  MIC comb. (antibiotic agent): 0.1 µg/mL (≈ 0.2 µM)
[3]; Staphylococcus aureus, read-out: MIC alone (antibiotic agent), S. aureus
  MIC: > 100 µg/mL
